Patent publication US10274488B2, “Glycan arrays on PTFE-like aluminum coated glass slides and related methods” (Academia Sinica, priority 2008, dated 2019)

What was measured:
Assay type in all cases: biochemical, Clostridium thermocellum
exoglucanase L3 [1] = assay: Enzymatic hydrolysis on the PTFE-like ACG surface with exoglucanase L3, MS-TOF assay; conditions: substrate immobilized on the PTFE-like ACG surface, 24 hours of incubation
Description: (§1) For each carbohydrate, a specific enzyme was added: (a) is the control run without enzymes, (b) is exoglucanase L3, and (c) is endoglucanase 44A. […]
(§2) For comparison and as illustrated according to implementations shown in FIG. 23, substrate 8, 9, and 10 were immobilized on the PTFE-like ACG surface and carried out the cellulase hydrolysis on the surface directly, after the same washing procedures, these slides were subjected to MS-TOF assay. […] The endoglucanase 44A can't accept compound 8 or 9 as a substrate. […] From the above results, the cellotetraose substrate 10 was the best carbohydrate to create array on the PTFE-like ACG surface for the experiments conducted. By using this array, the activity and specificity of unknown cellulase may be examined.
Cellulase was prepared (5 U/mL in 25 mM pH 5.05 NaOAc buffer solution). Substrate was also dissolved in NaOAc buffer solution (25 mM, pH 5.05) to give 0.5 mM substrate solution. Add 50 μL cellulase solution to 50 μL substrate solution onto the glass slide which was loaded in FAST® Frame multi-slide plate to have a 2.5 U/mL cellulase solution with 0.25 mM substrate. […] Put the slide in dry box to remove the water, and then use high vacuum to remove trace water. 100 uL water was used to rinse each well of the FAST® Frame multi-slide plate to solve and remove the salt of the buffer solution. Remove any residual water on the plate by high vacuum and then analyzed the slide by MALDI-TOF Ultra-Flex II.
(§3) The genomic DNA of Sulfolobus solfataricus (ATCC 35092) and Clostridium thermocellum (ATCC 27405) were obtained from the ATCC biological resource center. The Sso7d (NCBI accession number: AAK42090) gene fragment was amplified directly from the Sulfolobus solfataricus genome by polymerase chain reaction (PCR) with forward 5′ […] 3′ (SEQ ID NO: 1) and reverse 5′ […] 3′ (SEQ ID NO: 2) primers. […]

exoglucanase L3 [2] = assay: Enzymatic hydrolysis in solution with purified exoglucanase L3, MS-TOF assay; conditions: reaction in solution
Description: (§4) To verify, the exoglucanases (L3) and endoglucanase (44A) were prepared according methods well known in the literature with minor modifications. First, enzymatic hydrolysis reactions were conducted in solution with the purified enzymes using substrates 8, 9 and 10. At the completion of the reaction, the solution mixtures were transferred to the PTFE-like ACG slide, and prepared by using the same washing procedures before being subjected to MS-TOF assay.
as §1
(§5) Cellulase was prepared (5 U/mL in 25 mM pH 5.05 NaOAc buffer solution). Substrate was also dissolved in NaOAc buffer solution (25 mM, pH 5.05) to give 0.5 mM substrate solution. Add 100 uL cellulase solution to 100 uL substrate solution in eppendorf to have a 2.5 U/mL cellulase solution with 0.25 mM substrate. This solution was incubated in 37° C. for 18 hours. Add 100 μL incubated solution onto the slide loaded in FAST® Frame. Put the slide in dry box to remove the water, and then use high vacuum to remove trace water. 100 μL water was used to rinse each well of the FAST® Frame multi-slide plate to solve and remove the salt of the buffer solution. Remove any residual water on the plate by high vacuum and then analyzed the slide by MALDI-TOF Ultra-Flex II.
as §3, with “primers. The PCR product encoding Sso7d was digested with NdeI and BamHI and subsequently cloned into expression vector pET-28a (Novagen) to generate pET-28-Sso7d.” for “primers.”

endoglucanase 44A [3] = assay: Enzymatic hydrolysis on the PTFE-like ACG surface with endoglucanase 44A, MS-TOF assay; conditions: substrate immobilized on the PTFE-like ACG surface
Description: as §1, §2
Cellulase was prepared (5 U/mL in 25 mM pH 5.05 NaOAc buffer solution). Substrate was also dissolved in NaOAc buffer solution (25 mM, pH 5.05) to give 0.5 mM substrate solution. Add 50 μL cellulase solution to 50 μL substrate solution onto the glass slide which was loaded in FAST® Frame multi-slide plate to have a 2.5 U/mL cellulase solution with 0.25 mM substrate. The well of the plate was sealed and the whole assembly was incubated in 37° C. for 18 hours. Put the slide in dry box to remove the water, and then use high vacuum to remove trace water. 100 uL water was used to rinse each well of the FAST® Frame multi-slide plate to solve and remove the salt of the buffer solution. Remove any residual water on the plate by high vacuum and then analyzed the slide by MALDI-TOF Ultra-Flex II.
as §3

endoglucanase 44A [4] = assay: Enzymatic hydrolysis in solution with purified endoglucanase 44A, MS-TOF assay; conditions: reaction in solution
Description: as §4, §1, §5
as §3, with “primers. The PCR product encoding Sso7d was digested with NdeI and BamHI and subsequently cloned into expression vector pET-28a (Novagen) to generate pET-28-Sso7d.” for “primers.”

Cleavage of the substrate by exoglucanase L3 (in words) (exoglucanase L3 [1]): cleaved the cellobiose quickly
Cleavage of the substrate by exoglucanase L3 (in words) (exoglucanase L3 [2]): quickly
Cleavage of the substrate by endoglucanase 44A (in words) (endoglucanase 44A [3]): cleaved cellotetraose quickly
SMILES: O=C(NCCCCCO[C@@H]1O[C@H](CO)[C@@H](O[C@@H]2O[C@H](CO)[C@@H](O[C@@H]3O[C@H](CO)[C@@H](O[C@@H]4O[C@H](CO)[C@@H](O)[C@H](O)[C@H]4O)[C@H](O)[C@H]3O)[C@H](O)[C@H]2O)[C@H](O)[C@H]1O)OCCCC(F)(F)C(F)(F)C(F)(F)C(F)(F)C(F)(F)C(F)(F)C(F)(F)C(F)(F)C(F)(F)F [Compound 10, [(4,4,5,5,6,6,7,7,8,8,9,9,10,10,11,11,12,12,12-nonadecafluorododecoxycarbonyl-amino)pentyl] ß-D-glucopyranosyl-(1→4)-ß-D-glucopyranosyl-(1→4)- -ß-D-glucopyranosyl-(1→4)-13-D-glucopyranoside]
Cleavage of the substrate by endoglucanase 44A (in words) (endoglucanase 44A [4]): cleaves the trisaccharide or tetrasaccharide unit
